# Laboratory results from patent US9521847B2, “Synergistic weed control from applications of pyridine carboxylic acid herbicides and synthetic auxin herbicides and/or auxin transport inhibitors” (Dow AgroSciences LLC, priority 2014, dated 2016).
# Where two headings read alike, the source gives them in different places.
# What was measured:
# [1] = tested on: Chinese kale (Brassica alboglabra, BRSAG); assay: Greenhouse postemergence trial, % visual injury; format: in vivo; conditions: 400 g ae/ha alone; 20-22 d
# [2] = tested on: brown mustard (Brassica juncea, BRSJU); assay: Greenhouse postemergence trial, % visual injury; format: in vivo; conditions: 400 g ae/ha alone; 20-22 d
# [3] = tested on: rutabaga (Brassica napus var. napobrassica, BRSNA); assay: Greenhouse postemergence trial, % visual injury; format: in vivo; conditions: 400 g ae/ha alone; 20-22 d
# [4] = tested on: grain sorghum (Sorghum vulgare, SORVU); assay: Greenhouse postemergence trial, % visual injury; format: in vivo; conditions: Arylex 2.5 g ae/ha
# [5] = tested on: black mustard (Brassica nigra, BRSNI); assay: Greenhouse postemergence trial, % visual injury; format: in vivo
# [6] = tested on: turnip (Brassica rapa, BRSRR); assay: Greenhouse postemergence trial, % visual injury; format: in vivo
# [7] = tested on: wild radish (Raphanus raphanistrum, RAPRA); assay: Greenhouse postemergence trial, % visual injury; format: in vivo
# [8] = tested on: wild mustard (Sinapis arvensis, SINAR); assay: Greenhouse postemergence trial, % visual injury; format: in vivo
# [9] = tested on: Indian hedge mustard (Sisymbrium orientale, SSYOR); assay: Greenhouse postemergence trial, % visual injury; format: in vivo
# [10] = tested on: Canadian thistle (CIRAR, Cirsium arvense); assay: Greenhouse postemergence trial, % visual injury;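 note: plants sprayed at second to third true leaf stage, injury scored visually 20-22 d later against solvent-blank sprayed controls, 0 meaning no injury and 100 complete kill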
# [11] = tested on: spring rape (Brassica napus, BRSNN); assay: Greenhouse postemergence trial, % visual injury
# [12] = tested on: wild pansy (Viola tricolor, VIOTR); assay: Greenhouse postemergence trial, % visual injury
# [13] = tested on: ivyleaf morningglory (Ipomoea hederacea, IPOHE); assay: Greenhouse postemergence trial, % visual injury
# [14] = tested on: winter wheat (TRZAW); assay: Greenhouse postemergence trial, crop phytotoxicity (% visual injury); conditions: Arylex 2.5 g ae/ha
# [15] = tested on: maize (ZEAMX); assay: as above; conditions: Arylex 2.5 g ae/ha
# [16] = tested on: common rice (ORYSA); assay: as above; conditions: Arylex 2.5 g ae/ha
# [17] = tested on: pigweed (AMARE, Amaranthus retroflexus); assay: Greenhouse postemergence trial, % visual injury; format: in vivo; conditions: Amaranthus retroflexus, post-emergence; 140 g ae/ha alone; 20-22 d; read-out: % visual injury Obs
# [18] = tested on: winter rape (BRSNW, Brassica napus); assay: Greenhouse postemergence trial, % visual injury; format: in vivo; conditions: 140 g ae/ha alone; 20-22 d
# [19] = tested on: common lambsquarters (CHEAL, Chenopodium album L.); assay: Greenhouse postemergence trial, % visual injury; format: in vivo; conditions: CHEAL, 140 g ae/ha
# [20] = tested on: large crabgrass (Digitaria sanguinalis, DIGSA); assay: Greenhouse postemergence trial, % visual injury; format: in vivo; conditions: Digitaria sanguinalis, post-emergence; DIGSA, 140 g ae/ha; read-out: % visual injury, Obs
# [21] = tested on: spring barley (HORVS); conditions: Hordeum vulgare (spring barley), in vivo
# [22] = tested on: winter wheat (TRZAW); conditions: in vivo
# [23] = tested on: maize (ZEAMX); conditions: maize (Zea mays), in vivo
# [24] = tested on: common rice (ORYSA); conditions: in vivo
# [25] = tested on: poinsettia (Euphorbia heterophylla, EPHHL); assay: Greenhouse postemergence trial, % visual injury
# [26] = winter wheat (Triticum aestivum)
compound,measurement,setting,value
"O=C(O)COc1ccc(Cl)cc1Cl [2,4-D choline, reference compound]",% visual injury Obs,[1],85%
same,% visual injury Obs,[2],90%
same,% visual injury Obs,[3],93%
COC(=O)c1nc(-c2ccc(Cl)c(OC)c2F)cc(N)c1Cl [Arylex ™],% visual injury (Obs),[4],0%
same,% visual injury (Obs),[5]; Arylex 2.5 g ae/ha,0%
same,% visual injury (Obs),[5]; Arylex 5 g ae/ha,0%
same,% visual injury (Obs),[6]; Arylex 2.5 g ae/ha,10%
same,% visual injury (Obs),[6]; Arylex 5 g ae/ha,13%
same,% visual injury (Obs),[7]; Arylex 2.5 g ae/ha,10%
same,% visual injury (Obs),[7]; Arylex 5 g ae/ha,20%
same,% visual injury (Obs),[8]; Arylex 2.5 g ae/ha,65%
same,% visual injury (Obs),[8]; Arylex 5 g ae/ha,78%
same,% visual injury (Obs),[9]; Arylex 2.5 g ae/ha,57%
same,% visual injury (Obs),[9]; Arylex 5 g ae/ha,63%
same,% visual injury (Obs),[10]; Arylex 2.5 g ae/ha,50%
same,% visual injury (Obs),[11]; Arylex 2.5 g ae/ha,20%
same,% visual injury (Obs),[12]; Arylex 2.5 g ae/ha,15%
same,% visual injury (Obs),[12]; Arylex 5 g ae/ha,20%
same,% visual injury (Obs),[13]; Arylex 2.5 g ae/ha,10%
same,% visual injury (Obs),[14],0%
same,% visual injury (Obs),[15],0%
same,% visual injury (Obs),[16],0%
"COc1c(Cl)ccc(Cl)c1C(=O)O [Dicamba-DMA, dicamba-dimethylammonium, reference compound]",pest or weed control at 140 g/ha,[17],67%
same,% visual injury Obs,[18],40%
same,"% visual injury, Obs",[19],85%
same,pest or weed control at 140 g/ha,[20],0%
same,% visual injury Obs,[21],0%
same,% visual injury Obs,[22]; Triticum aestivum (winter wheat),0%
same,% visual injury (Obs),[22]; [26],0%
same,"% visual injury, Obs",[22]; [26],0%
same,% visual injury (Obs),[23],0%
same,"% visual injury, Obs",[23],0%
same,% visual injury (Obs),[24],0%
same,"% visual injury, Obs",[24],5%
same,pest or weed control at 150 g/ha,"[10]; Cirsium arvense, post-emergence, read-out: % visual injury (Obs)",70%
same,plant injury at 150 g/ha,"[11]; Brassica napus, post-emergence, read-out: % visual injury (Obs)",40%
same,plant injury at 140 g/ha,"[11]; Brassica napus, post-emergence, read-out: % visual injury, Obs",50%
same,pest or weed control at 140 g/ha,"[25]; Euphorbia heterophylla, post-emergence, read-out: % visual injury, Obs, EPHHL, 140 g ae/ha",20%
same,% visual injury (Obs),[25]; dicamba-DMA 150 g ae/ha,50%
same,% visual injury (Obs),[12]; dicamba-DMA 150 g ae/ha,20%
same,% visual injury (Obs),[13]; dicamba-DMA 150 g ae/ha,70%
